code Z = not defined here
Tested on: rat
Test: Diuretic, natriuretic and kaliuretic action, Experimental Design 1 (anesthetized rats, continuous NaCl infusion, i.v. bolus)
Type: in vivo
Details: dose 1 mg/kg rat i.v. bolus, collection period 90 min
Experimental: A. […]
Experimental Design 1: The rats were anesthetized with 0.1 ml of 10% strength thiobutabarbital sodium/100 g of body weight i.p. They received an NaCl infusion from 60 min before administration of the substance and continuing during the experiment (2.5 ml of a 0.9% strength NaCl solution .h^-1.0.1 kg^-1 body weight). The test substance was administered as an i.v. bolus in 0.5 ml of a 0.9% strength solution/100 g of body weight.

Question: With “Z-Arg-Ile-Trp-Arg-Ile-OMe ({code Z}-RIWRI-OMe; reading uncertain; also: printed as Z-Arg-Ile-Trp-Arg-Ile-OMe)” as the substance, how does the Urine (control 1.267) read?
Answer: Its Urine is 1.16 mL/kg.

Question: And the “K^+” value (control 29.5)?
Answer: Its value is 46.2 µmol/kg.

Question: What about the “Na^+” value (control 65.2) of the same substance?
Answer: The value was 152.5 µmol/kg.
